Experimental data reported in patent US6204282A, “Benzimidazole compounds that are vitronectin receptor antagonists” (Schering Corporation, priority 1999, dated 2001).

These molecules were tested against αllbβ3 receptor (Homo sapiens, UniProt P05106+P08514) (assay: similar competitive assay with purified αllbβ3 receptor and 125I-echistatin (specificity index versus αvβ3)). Settings: IC50 αllbβ3 / IC50 αvβ3.
Type: binding
Text: The specificity index, which is a measure of the relative binding affinity for αvβ3 versus αllbβ3, may be determined by dividing the IC50 value for αllbβ3by the IC50 value for αvβ3.

Chain of αllbβ3 receptor (P08514 32-1039): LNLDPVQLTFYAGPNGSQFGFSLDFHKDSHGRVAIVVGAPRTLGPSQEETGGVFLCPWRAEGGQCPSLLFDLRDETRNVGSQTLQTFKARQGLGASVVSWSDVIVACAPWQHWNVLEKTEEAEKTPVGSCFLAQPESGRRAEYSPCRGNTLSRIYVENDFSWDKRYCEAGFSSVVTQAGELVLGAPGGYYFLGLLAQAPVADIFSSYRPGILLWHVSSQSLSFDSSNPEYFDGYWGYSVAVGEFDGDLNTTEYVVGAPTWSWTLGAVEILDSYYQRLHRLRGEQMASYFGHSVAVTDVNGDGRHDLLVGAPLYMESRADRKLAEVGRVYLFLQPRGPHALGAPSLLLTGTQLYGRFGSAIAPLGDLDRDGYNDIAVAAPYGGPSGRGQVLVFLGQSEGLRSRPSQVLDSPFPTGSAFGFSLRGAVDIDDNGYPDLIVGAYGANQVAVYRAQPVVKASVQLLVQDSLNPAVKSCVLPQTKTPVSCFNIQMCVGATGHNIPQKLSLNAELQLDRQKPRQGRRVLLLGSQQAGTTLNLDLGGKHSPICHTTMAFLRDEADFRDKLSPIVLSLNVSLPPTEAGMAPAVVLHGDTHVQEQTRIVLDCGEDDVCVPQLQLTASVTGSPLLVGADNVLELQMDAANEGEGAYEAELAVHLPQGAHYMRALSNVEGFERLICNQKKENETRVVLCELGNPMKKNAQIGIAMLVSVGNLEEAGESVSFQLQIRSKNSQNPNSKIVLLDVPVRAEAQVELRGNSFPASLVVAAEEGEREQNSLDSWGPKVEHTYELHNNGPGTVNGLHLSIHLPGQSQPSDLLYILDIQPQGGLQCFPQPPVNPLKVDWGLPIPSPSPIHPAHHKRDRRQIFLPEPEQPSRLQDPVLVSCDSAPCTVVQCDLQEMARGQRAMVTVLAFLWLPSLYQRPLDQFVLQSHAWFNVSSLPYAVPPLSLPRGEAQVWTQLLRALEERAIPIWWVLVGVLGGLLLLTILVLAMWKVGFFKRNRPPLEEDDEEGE
Chain of αllbβ3 receptor (P05106 27-788): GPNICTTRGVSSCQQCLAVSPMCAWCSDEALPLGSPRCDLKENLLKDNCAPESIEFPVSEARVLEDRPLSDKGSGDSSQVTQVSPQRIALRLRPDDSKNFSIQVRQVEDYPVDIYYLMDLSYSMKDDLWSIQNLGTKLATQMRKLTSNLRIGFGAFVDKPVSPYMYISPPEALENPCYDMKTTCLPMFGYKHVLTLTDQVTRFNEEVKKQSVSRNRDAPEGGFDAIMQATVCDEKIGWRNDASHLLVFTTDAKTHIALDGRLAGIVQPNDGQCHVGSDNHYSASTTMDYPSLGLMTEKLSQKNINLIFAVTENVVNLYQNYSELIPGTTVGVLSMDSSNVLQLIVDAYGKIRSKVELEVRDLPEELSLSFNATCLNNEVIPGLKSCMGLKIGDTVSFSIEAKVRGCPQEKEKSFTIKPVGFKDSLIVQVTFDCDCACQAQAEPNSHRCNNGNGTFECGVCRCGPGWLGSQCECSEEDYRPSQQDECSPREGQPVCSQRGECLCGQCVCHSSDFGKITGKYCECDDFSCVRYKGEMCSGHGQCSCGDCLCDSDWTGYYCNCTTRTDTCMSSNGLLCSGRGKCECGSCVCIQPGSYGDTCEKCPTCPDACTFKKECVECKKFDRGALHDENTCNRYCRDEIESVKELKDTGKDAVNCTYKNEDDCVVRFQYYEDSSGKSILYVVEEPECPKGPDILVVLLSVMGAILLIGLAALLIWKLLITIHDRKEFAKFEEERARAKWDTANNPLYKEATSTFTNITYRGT

Going from `O=C(O)CNC(=O)N(Cc1ccc(C(=O)NC[C@H](NC(=O)OCc2ccccc2)C(=O)O)cc1)Cc1nc2ccccc2[nH]1` [Example 5-96, N^3-[4-[(Benzimidazol-2-yl)methyl][[(carboxymethyl)amino]carbonyl]aminomethylbenzoyl]-N^2 -Cbz-L-2,3-diaminopropionic acid] to `CCNC(=O)N(Cc1ccc(C(=O)NC[C@H](NC(=O)OCc2ccccc2)C(=O)O)cc1)Cc1nc2ccccc2[nH]1` [Example 5-43], the “SPECIFICITY αIIb β3/αvβ3 (specificity index)” value rises from 528 to 585.

Compared with `CC(=O)OC(C(=O)N(Cc1ccc(C(=O)NC[C@H](NC(=O)OCc2ccccc2)C(=O)O)cc1)Cc1nc2ccccc2[nH]1)c1ccccc1` (stereo partly drawn) [Example 5-18], `O=C(N[C@@H](CNC(=O)c1ccc(CN(Cc2nc3ccccc3[nH]2)C(=O)Nc2ccccc2)cc1)C(=O)O)OCc1ccccc1` [Example 5-27] is higher in “SPECIFICITY αIIb β3/αvβ3 (specificity index)” value: 82 for the first, 481 for the second.

Compared with `CCOC(=O)[C@H](CCSC)NC(=O)N(Cc1ccc(C(=O)NC[C@H](NC(=O)OCc2ccccc2)C(=O)O)cc1)Cc1nc2ccccc2[nH]1` [Example 5-48], `CCOC(=O)[C@H](CC(C)C)NC(=O)N(Cc1ccc(C(=O)NC[C@H](NC(=O)OCc2ccccc2)C(=O)O)cc1)Cc1nc2ccccc2[nH]1` [Example 5-53] is lower in “SPECIFICITY αIIb β3/αvβ3 (specificity index)” value: 2028 for the first, 483 for the second.

Compared with `COCC(=O)N(Cc1ccc(C(=O)NC[C@H](NS(=O)(=O)c2ccccc2)C(=O)O)cc1)Cc1nc2ccccc2[nH]1` [Example 5-80], `COCC(=O)N(Cc1ccc(C(=O)NC[C@@H](NC(=O)OCc2ccccc2)C(=O)O)cc1)Cc1nc2ccccc2[nH]1` [Example 5-58] is higher in “SPECIFICITY αIIb β3/αvβ3 (specificity index)” value: 11 for the first, 46 for the second.

Compared with `CCCCOC(=O)N[C@@H](CNC(=O)c1ccc(CN(Cc2nc3ccccc3[nH]2)C(=O)NC(C)C)cc1)C(=O)O` [Example 5-84], `CCCCOC(=O)N[C@@H](CNC(=O)c1ccc(CN(Cc2nc3ccccc3[nH]2)C(=O)NC(C)(C)C)cc1)C(=O)O` [Example 5-85] is higher in “SPECIFICITY αIIb β3/αvβ3 (specificity index)” value: 712 for the first, 1223 for the second.

First: O=C(NC(CNC(=O)c1ccc(CN(CCc2nc3ccccc3[nH]2)C(=O)CCC2CCCC2)cc1)C(=O)O)OCc1ccccc1 (stereo not drawn) [Example 5-74]
Second: O=C(N[C@@H](CNC(=O)c1ccc(CN(Cc2nc3ccccc3[nH]2)C(=O)CCC2CCCC2)cc1)C(=O)O)OCc1ccccc1 [Example 5-14]
The “SPECIFICITY αIIb β3/αvβ3 (specificity index)” value of the first is lower: 0.6 for the first, 117 for the second.

Going from `COCC(=O)N(Cc1ccc(C(=O)NC[C@H](NC(=O)OCc2ccccc2)C(=O)O)cc1)C(C)c1nc2ccccc2[nH]1` (stereo partly drawn) [Example 5-77] to `CC(=O)N(Cc1ccc(C(=O)NC[C@H](NC(=O)OCc2ccccc2)C(=O)O)cc1)C(C)c1nc2ccccc2[nH]1` (stereo partly drawn) [Example 5-76], the “SPECIFICITY αIIb β3/αvβ3 (specificity index)” value falls from 12.4 to 6.7.

Going from `CCCCOC(=O)N[C@@H](CNC(=O)c1ccc(CN(Cc2nc3ccccc3[nH]2)C(=O)NCC(=O)O)cc1)C(=O)O` [Example 5-97, N^3-[4-[(Benzimidazol-2-yl)methyl][[(carboxymethyl)amino]carbonyl]aminomethylbenzoyl]-N^2-(n-butoxycarbonyl)-L-2,3-diaminopropionic acid] to `CCCCOC(=O)N[C@@H](CNC(=O)c1ccc(CN(Cc2nc3ccccc3[nH]2)C(=O)NCC(=O)OCC)cc1)C(=O)O` [Example 5-86, N^3-[4-[(benzimnidazol-2-yl)methyl][[(ethoxycarbonylmethyl)amino]-carbonyl]aminomethylbenzoyl]-N^2-(n-butoxycarbonyl)-L-2,3-diaminopropionic acid], the “SPECIFICITY αIIb β3/αvβ3 (specificity index)” value falls from 2600 to 793.

Compared with `COc1ccc(NC(=S)N(Cc2ccc(C(=O)NC[C@H](NC(=O)OCc3ccccc3)C(=O)O)cc2)Cc2nc3ccccc3[nH]2)cc1` [Example 5-46], `O=C(N[C@@H](CNC(=O)c1ccc(CN(Cc2nc3ccccc3[nH]2)C(=O)Nc2ccc(F)cc2)cc1)C(=O)O)OCc1ccccc1` [Example 5-49] is lower in “SPECIFICITY αIIb β3/αvβ3 (specificity index)” value: 1065 for the first, 504 for the second.

First: CN(C)CC(=O)N(Cc1ccc(C(=O)NC[C@H](NC(=O)OCc2ccccc2)C(=O)O)cc1)Cc1nc2ccccc2[nH]1 [Example 5-24]
Second: COCCC(=O)N(Cc1ccc(C(=O)NC[C@H](NC(=O)OCc2ccccc2)C(=O)O)cc1)Cc1nc2ccccc2[nH]1 [Example 5-25]
The “SPECIFICITY αIIb β3/αvβ3 (specificity index)” value of the first is lower: 14 for the first, 52 for the second.

Compared with `CCCCOC(=O)N[C@@H](CNC(=O)c1ccc(CN(Cc2nc3ccccc3[nH]2)C(=O)N[C@@H](CCSC)C(=O)OCC)cc1)C(=O)O` [Example 5-87], `CCCCOC(=O)N[C@@H](CNC(=O)c1ccc(CN(Cc2nc3ccccc3[nH]2)C(=O)N[C@@H](C)C(=O)OCC)cc1)C(=O)O` [Example 5-89] is lower in “SPECIFICITY αIIb β3/αvβ3 (specificity index)” value: 1569 for the first, 1094 for the second.

First: CCOC(=O)c1ccc(NC(=O)N(Cc2ccc(C(=O)NC[C@H](NC(=O)OCc3ccccc3)C(=O)O)cc2)Cc2nc3ccccc3[nH]2)cc1 [Example 5-47]
Second: CCOC(=O)CCNC(=O)N(Cc1ccc(C(=O)NC[C@H](NC(=O)OCc2ccccc2)C(=O)O)cc1)Cc1nc2ccccc2[nH]1 [Example 5-54]
The “SPECIFICITY αIIb β3/αvβ3 (specificity index)” value of the first is higher: 1252 for the first, 413 for the second.

Compared with `COCC(=O)N(Cc1ccc(C(=O)NC[C@H](NC(=O)OC(C)(C)C)C(=O)O)cc1)Cc1nc2ccccc2[nH]1` [Example 5-62], `CC(=O)N(Cc1ccc(C(=O)NC[C@H](NC(=O)OC(C)(C)C)C(=O)O)cc1)Cc1nc2ccccc2[nH]1` [Example 5-61] is lower in “SPECIFICITY αIIb β3/αvβ3 (specificity index)” value: 419 for the first, 324 for the second.

First: CCCCOC(=O)N[C@@H](CNC(=O)c1ccc(CN(Cc2nc3ccccc3[nH]2)C(=O)NC2CCCCC2)cc1)C(=O)O [Example 5-82]
Second: O=C(N[C@@H](CNC(=O)c1ccc(CN(Cc2nc3ccccc3[nH]2)C(=O)NC2CCCCC2)cc1)C(=O)O)OCc1ccccc1 [Example 5-28]
The “SPECIFICITY αIIb β3/αvβ3 (specificity index)” value of the first is higher: 1259 for the first, 1136 for the second.

Compared with `CCCNC(=O)N(Cc1ccc(C(=O)NC[C@H](NC(=O)OCc2ccccc2)C(=O)O)cc1)Cc1nc2ccccc2[nH]1` [Example 5-39], `CC(C)C(=O)N(Cc1ccc(C(=O)NC[C@H](NC(=O)OCc2ccccc2)C(=O)O)cc1)Cc1nc2ccccc2[nH]1` [Example 5-13] is lower in “SPECIFICITY αIIb β3/αvβ3 (specificity index)” value: 223 for the first, 38 for the second.

Compared with `CN(Cc1ccc(C(=O)NC[C@H](NC(=O)OCc2ccccc2)C(=O)O)cc1)Cc1nc2ccccc2[nH]1` [Example 5-33], `COCCNC(=S)N(Cc1ccc(C(=O)NC[C@H](NC(=O)OCc2ccccc2)C(=O)O)cc1)Cc1nc2ccccc2[nH]1` [Example 5-56] is higher in “SPECIFICITY αIIb β3/αvβ3 (specificity index)” value: 128 for the first, 514 for the second.

`O=C(O)CC(NC(=O)c1ccc(CN(Cc2nc3ccccc3[nH]2)C(=O)CCC2CCCC2)cc1)c1ccccc1` (stereo not drawn) [Example 5-69] and `CC(=O)N(Cc1ccc(C(=O)NC(CC(=O)O)c2ccccc2)cc1)Cc1nc2ccccc2[nH]1` (stereo not drawn) [Example 5-66] are the same in “SPECIFICITY αIIb β3/αvβ3 (specificity index)” value: 0.4 for the first, 0.4 for the second.

First: O=C(N[C@@H](CNC(=O)c1ccc(CN(Cc2nc3cc(Cl)ccc3[nH]2)C(=O)NC2CCCCC2)cc1)C(=O)O)OCc1ccccc1 [Example 5-94]
Second: O=C(N[C@@H](CNC(=O)c1ccc(CN(Cc2nc3ccccc3[nH]2)C(=O)C2CCCCC2)cc1)C(=O)O)OCc1ccccc1 [Example 5-15]
The “SPECIFICITY αIIb β3/αvβ3 (specificity index)” value of the first is higher: 399 for the first, 95 for the second.

First: CC(NC(=O)N(Cc1ccc(C(=O)NC[C@H](NC(=O)OCc2ccccc2)C(=O)O)cc1)Cc1nc2ccccc2[nH]1)c1cccc2ccccc12 (stereo partly drawn) [Example 5-36]
Second: O=C(N[C@@H](CNC(=O)c1ccc(CN(Cc2nc3ccccc3[nH]2)C(=O)Nc2cccc3ccccc23)cc1)C(=O)O)OCc1ccccc1 [Example 5-37]
The “SPECIFICITY αIIb β3/αvβ3 (specificity index)” value of the first is lower: 129 for the first, 203 for the second.

First: O=C(NC[C@H](NS(=O)(=O)c1ccccc1)C(=O)O)c1ccc(CN(Cc2nc3ccccc3[nH]2)C(=O)NC2CCCCC2)cc1 [Example 5-81]
Second: O=C(N[C@@H](CNC(=O)c1ccc(CN(Cc2nc3ccccc3[nH]2)C(=O)NS(=O)(=O)c2ccc(Cl)cc2)cc1)C(=O)O)OCc1ccccc1 [Example 5-44]
The “SPECIFICITY αIIb β3/αvβ3 (specificity index)” value of the first is lower: 8.0 for the first, 66.3 for the second.

Compared with `O=C(O)CC(NC(=O)c1ccc(CNCc2nc3ccccc3[nH]2)cc1)c1ccccc1` (stereo not drawn) [Example 5-65], `CC(NCc1ccc(C(=O)NC[C@H](NC(=O)OCc2ccccc2)C(=O)O)cc1)c1nc2ccccc2[nH]1` (stereo partly drawn) [Example 5-75] is higher in “SPECIFICITY αIIb β3/αvβ3 (specificity index)” value: 0.4 for the first, 10.2 for the second.

First: O=C(N[C@@H](CNC(=O)c1ccc(CN(Cc2nc3ccccc3[nH]2)C(=O)COc2ccccc2)cc1)C(=O)O)OCc1ccccc1 [Example 5-19]
Second: O=C(N[C@@H](CNC(=O)c1ccc(CN(Cc2nc3ccccc3[nH]2)C(=O)CCc2ccccc2)cc1)C(=O)O)OCc1ccccc1 [Example 5-16]
The “SPECIFICITY αIIb β3/αvβ3 (specificity index)” value of the first is lower: 34 for the first, 899 for the second.

First: O=C(N[C@@H](CNC(=O)c1ccc(CN(Cc2nc3ccccc3[nH]2)C(=S)NCCc2ccccc2)cc1)C(=O)O)OCc1ccccc1 [Example 5-31]
Second: O=C(NC(CNC(=O)c1ccc(CN(CCc2nc3ccccc3[nH]2)C(=O)CCc2ccccc2)cc1)C(=O)O)OCc1ccccc1 (stereo not drawn) [Example 5-73]
The “SPECIFICITY αIIb β3/αvβ3 (specificity index)” value of the first is higher: 80 for the first, 0.7 for the second.

Compared with `CCOC(=O)CCC(=O)N(Cc1ccc(C(=O)NC[C@H](NC(=O)OCc2ccccc2)C(=O)O)cc1)Cc1nc2ccccc2[nH]1` [Example 5-17], `CCCCOC(=O)N[C@@H](CNC(=O)c1ccc(CN(Cc2nc3ccccc3[nH]2)C(=O)Nc2ccc(F)cc2)cc1)C(=O)O` [Example 5-88] is higher in “SPECIFICITY αIIb β3/αvβ3 (specificity index)” value: 76 for the first, 1657 for the second.

Going from `CCCCOC(=O)N[C@@H](CNC(=O)c1ccc(CN(Cc2nc3ccccc3[nH]2)C(=O)N[C@H](C(=O)OCC)C(C)C)cc1)C(=O)O` [Example 5-90] to `CC(C)(C)OC(=O)N[C@@H](CNC(=O)c1ccc(CN(Cc2nc3ccccc3[nH]2)C(=O)CCC2CCCC2)cc1)C(=O)O` [Example 5-64], the “SPECIFICITY αIIb β3/αvβ3 (specificity index)” value falls from 1697 to 499.

`O=C(N[C@@H](CNC(=O)c1ccc(CN(Cc2nc3ccccc3[nH]2)C(=O)Nc2ccc(-c3ccccc3)cc2)cc1)C(=O)O)OCc1ccccc1` [Example 5-38] was tested, and the “SPECIFICITY αIIb β3/αvβ3 (specificity index)” value was 49.
